Experimental data as given in patent US10175228B2, “Method of using transmembrane channel-like protein 6 (TMC6) protein to identify substances affecting salty taste” (priority 2016, dated 2019).

Target: T1, human TMC6 protein (Homo sapiens, UniProt Q7Z403)
T1 construct: expressed in transfected cells; host or cells: CHO-K1
T1 sequence (Q7Z403 1-805): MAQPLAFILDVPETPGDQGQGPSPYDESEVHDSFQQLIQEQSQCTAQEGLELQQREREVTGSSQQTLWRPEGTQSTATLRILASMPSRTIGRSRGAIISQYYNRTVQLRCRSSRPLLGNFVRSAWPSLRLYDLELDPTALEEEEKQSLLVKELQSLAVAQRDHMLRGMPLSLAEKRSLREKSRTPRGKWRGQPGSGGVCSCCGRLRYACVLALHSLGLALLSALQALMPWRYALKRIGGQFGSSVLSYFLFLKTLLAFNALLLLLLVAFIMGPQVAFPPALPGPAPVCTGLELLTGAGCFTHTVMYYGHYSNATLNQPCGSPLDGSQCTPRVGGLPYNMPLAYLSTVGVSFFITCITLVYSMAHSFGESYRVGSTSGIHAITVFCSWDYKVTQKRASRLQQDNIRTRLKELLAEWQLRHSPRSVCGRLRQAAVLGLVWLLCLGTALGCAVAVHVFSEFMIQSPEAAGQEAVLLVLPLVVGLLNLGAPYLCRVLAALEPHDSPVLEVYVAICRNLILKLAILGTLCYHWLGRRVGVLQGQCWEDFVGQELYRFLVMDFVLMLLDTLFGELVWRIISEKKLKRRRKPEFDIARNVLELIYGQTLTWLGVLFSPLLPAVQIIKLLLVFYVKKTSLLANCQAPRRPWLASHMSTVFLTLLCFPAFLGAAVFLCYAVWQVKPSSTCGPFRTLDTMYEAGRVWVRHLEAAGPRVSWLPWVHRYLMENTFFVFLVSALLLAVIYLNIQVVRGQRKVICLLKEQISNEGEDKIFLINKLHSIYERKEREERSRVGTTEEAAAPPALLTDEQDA
Test: Calcium imaging (YC2.60 FRET) of CHO-K1 cells expressing the human TMC6 gene
Type: cell-based
Conditions: stimulation with high-concentration NaCl solution (135 mM NaCl)
Procedure: After the cultivation, the culture broth was removed. A low-concentration NaCl solution (27 mM NaCl, 1 mM KCl, 0.4 mM CaCl2, 0.2 mM MgCl2, 2 mM Hepes (pH7.3), 1 mM NaHCO3, 2 mM glucose, 2 mM sodium pyruvate, and 112 mM NMDG-Cl) was added to the culture dish, incubation was carried out statically for 5 min, and then, stimulation and observation of cells were started. First, the low-concentration NaCl solution was perfused for approximately 80 sec, to provide a ground state. […] The stimulation with the ATP stimulation solution was carried out by dropping 600 μL of the ATP stimulation solution near cells to be measured on the culture dish with a pipet within 3 sec.
Observation of the cells was carried out with a confocal laser microscope FV1200 (Olympus). […] Activation of the cells was measured using the intracellular calcium concentration as an index. The intracellular calcium concentration was measured by calcium imaging using YC2.60. YC2.60 is one of calcium-sensitive fluorescent proteins based on fluorescence resonance energy transfer (FRET). […] When calcium ions bind to YC2.60, FRET from CFP to YFP is induced, and thereby, CFP fluorescence is attenuated and YFP fluorescence is enhanced. That is, a higher intracellular calcium concentration provides a higher YFP/CFP value of a cell, which value represents the ratio of YFP fluorescence intensity with respect to CFP fluorescence intensity. […]

Structure (SMILES): [Cl-].[Na+] [NaCl, sodium chloride]
- change of YFP/CFP value (intracellular calcium concentration, cell activation): increase
